Tests used:
hippocampal neurons [1] = assay: Neurite outgrowth in co-cultures with pharmacological inhibitors (PP2, SU5402); type: cell-based, rat; settings: neurons on control or NCAM-expressing fibroblasts; for effect of inhibitor on GDNF-induced neurite outgrowth: 10 ng/ml GDNF, PP2 0.2-25 μM, SU5402 1-25 μM; for effect of inhibitor on G2-induced neurite outgrowth: 3 μg/ml G2, PP2 0.2-100 μM, SU5402 1-100 μM, 24 hours
Experimental: (§1) In monocultures, neurons are grown directly on plastic and the only neuritogenic stimulus is the one presented by the added substance. In co-cultures, neurons are grown on top of a confluent monolayer of fibroblasts expressing NCAM-140 (LBN110) or NCAM-negative control fibroblasts (LVN212). NCAM on the neurons interact with NCAM on LBN110 cells thereby stimulating neurite outgrowth from the neurons. This system thus permits the study of NCAM-NCAM interactions and interactions between NCAM and other molecules.
(§2) For cocultures, L-cells were seeded in 8-well LabTek® Permanox Chamber slides at a density of 100.000 cells/well, except for transfection experiments where cells were seeded in 4-well LabTek® Permanox Chamber slides at a density of 200.000 cells/well. L-cells were grown for 24 hours in DMEM supplemented with 10% (v/v) FCS, 1% (v/v) glutamax, 100 U/ml penicillin, 100 μg/ml streptomycin, 2.5 μg/ml fungizone, and 567 μg/ml neomycin (G418), followed by washing twice in neurobasal medium with supplements before primary hippocampal neurons were seeded at a density of 7.000 cells/well in 8-well slides or 20.000 cells/well in 4-well slides.
To evaluate the involvement different intracellular signal transduction pathways pharmacological inhibitors, in particular the FGFR inhibitor SU5402 and Fyn-kinase inhibitor PP2, were diluted to the appropriate concentrations and added to the neurons immediately after seeding. After 10 minutes GDNF, GDNFp1 or medium (controls) was added and cells were incubated for 24 hours.
(§3) Neurite outgrowth experiments were terminated after the stated time by fixating the cells. To visualize neurons and their neurites, immunostaining of GAP-43 was performed. This staining is specific for neurons. Transfected cells and their neurites should be visible without immunostaining due to the fluorescence emitted by GFP. […] GFP is a cytoplasmic protein, and since thin neurites only contain a small volume of cytoplasm, GFP is only found in small amounts in most neurites. Therefore, a double-staining protocol, where cells were immunostained against GFP and GAP-43, was adopted. This protocol allowed the identification of transfected cells on the basis of GFP-staining in combination with visualization of neurites based on GAP-43-staining.
Without prior removal of the medium 300 μl/well (8-well slides) or 500 μl/well (4-well slides) of a PBS solution containing 0.4 mM CaCl2, 0.05 M sucrose and 8% (v/v) formaldehyde was added to the cultures for 20 minutes. Cells were then washed 10 minutes in PBS followed by washing in PBS with 1% (w/v) BSA for 20 minutes, after which cells were incubated with primary antibodies overnight at 4° C. […]

GFRα receptors = assay: Surface plasmon resonance (SPR) binding analysis, GFRα receptors; settings: immobilized receptor protein, 25° C., PBS pH 7.4
Experimental: Analysis of binding was performed employing a BIAcoreX instrument (Biosensor AB, Uppsala, Sweden) at 25° C. using 10 mM pH 7.4 sodium phosphate containing 150 mM NaCl as running buffer (phosphate-buffered saline, PBS). The flow-rate was 5 μl/min. Data were analysed by non-linear curve-fitting using the manufacturer's software. The receptor proteins, e.g. NCAM Ig1-Ig2 and GFR proteins, were immobilized on a sensor chip CM5 using an amine coupling kit (Biosensor AB) as follows: the chip was activated by 20 μl activation solution; the protein was immobilized using 12 μl 20 μg/ml protein in 10 mM sodium phosphate buffer pH 6.0; the chip was blocked by 35 μl blocking solution. Various peptides at the indicated concentrations were injected into the sensor chip. The curve corresponding to the difference between binding to receptor and a blank chip was used for analysis.

[2] = tested on: cerebellar granule neurons (CGN); assay: Survival assay, cerebellar granule neurons (apoptosis induced by low KCl); type: cell-based, Wistar rat; settings: 5 mM KCl, two days after induction of apoptosis
Experimental: Cerebellar granule neurons (CGN) were prepared from postnatal day seven Wistar rats largely as previously described by Schousboe et al. (1989). Cerebellar tissue was dissected in modified Krebs-Ringer solution kept on ice, and treated as described for the hippocampal neurons above. All cell cultures were incubated at 37° C. in a humidified atmosphere containing 5% CO2. All animals were handled in accordance with the national guidelines for animal welfare.
Primary cultures of CGN were plated at a density of 100,000 cells/cm^2 on poly-L-lysine coated 8-well permanox slides in Neurobasal-A medium (Gibco, BRL) supplemented with 2% (v/v) B27, 0.5% (v/v) glutamax, 100 U/ml penicillin, 100 μg/ml streptomycin and KCl, making the final concentration of KCl in the medium 40 mM. 24 hours after plating, cytosine-β-D-arabinofuranoside (Ara-C; Sigma-Aldrich) was added to a final concentration of 10 μM to avoid proliferation of glial cells, after which the neurons were allowed to differentiate for further six days at 37° C. Apoptotic cell death was induced by washing twice and changing the medium to Basal Medium Eagle (BME; Gibco BRL) supplemented with 1% (v/v) glutamine, 100 U/ml penicillin and 100 μg/ml streptomycin, 3.5 g D-glucose/l and 1% (v/v) sodium pyruvate (Gibco BRL) together with various concentrations of peptide. Thereby the concentration of potassium in the cultures was reduced to 5 mM KCl (D'Mello et al., 1993). Two days after induction of apoptosis, the cells were fixed with 4% (v/v) formaldehyde and stained with Hoechst 33258 for 25 minutes as described by Kruman et al. (1997). Images of 1000-1500 neurons were randomly recorded for each group in each experiment using computer assisted fluorescence microscopy as described for the hippocampal neurite outgrowth assay. Nuclei from dead and live neurons were counted using the software package Prima developed at the Protein Laboratory, and the fraction of live neurons relative to the total number of neurons was estimated.

[3] = tested on: primary hippocampal neurons; assay: Neurite outgrowth assay, monocultures of primary hippocampal neurons; type: cell-based, rat; settings: monoculture, stimulated 24 hours; GDNF 1-100 ng/ml, peptides 0.1-27 μg/ml; versus medium alone
Experimental: (§4) Two different versions of the neurite outgrowth assay were used in this study, monocultures and co-cultures.
as §1
(§5) For all experiments cells were grown in neurobasal medium with supplements as described above in a final volume of 300 μl/well in 8-well LabTek® Permanox Chamber slides or 500 μl/well in 4-well LabTek® Permanox Chamber slides.
For monocultures, primary hippocampal neurons were seeded in 8-well LabTek® Permanox Chamber slides at a density of 10,000 cells/well.
(§6) To evaluate the effect peptides on neurite outgrowth, GDNF and the peptides, G1, G2, G3, A1, A2, A3, N1, N2 and N3 were diluted to the appropriate concentrations and added to the neurons approximately 10 minutes after seeding. Medium alone was added to controls, and cells were incubated for 24 hours.
as §3, with “GAP-43-staining. […]” for “GAP-43-staining.”

hippocampal neurons [4] = assay: Neurite outgrowth assay, co-cultures of hippocampal neurons on control fibroblasts or NCAM-expressing fibroblasts; type: cell-based, rat; settings: 24 hours
Experimental: as §4, §1, §5, §2, §6, §3
Without prior removal of the medium 300 μl/well (8-well slides) or 500 μl/well (4-well slides) of a PBS solution containing 0.4 mM CaCl2, 0.05 M sucrose and 8% (v/v) formaldehyde was added to the cultures for 20 minutes. Cells were then washed 10 minutes in PBS followed by washing in PBS with 1% (w/v) BSA for 20 minutes, after which cells were incubated with primary antibodies overnight at 4° C.
Rabbit anti-rat GAP-43 antibodies were diluted 1:1000 for staining of untransfected cells and 1:2000 for staining of transfected cells. Mouse anti-GFP antibodies were diluted 1:1000. Antibodies were diluted in a PBS solution containing 7% (v/v) FCS to block unspecific binding, 50 mM glycine to block formaldehyde used for fixation, 0.2% (v/v) saponin to permeabilize cells, and 0.02% (v/v) NaN3 to preserve antibodies for later use.
The next day cells were washed 10 minutes in PBS followed by washing in PBS with 1% (w/v) BSA for 20 minutes. Cells were then incubated with secondary antibodies diluted in PBS with 1% (w/v) BSA for one hour at room temperature. Goat anti-rabbit IgG antibodies conjugated to Alexa 488 were diluted 1:1000 for untransfected cells and 1:2000 for transfected cells. Goat anti-mouse IgG antibodies conjugated to Alexa 546 were diluted 1:1000. Finally cells were washed 3×7 minutes in PBS and mounted with fluorescent mounting medium. […]

| Compound | binding to the GFRα receptors (SPR) (GFRα receptors) | survival of cerebellar granule neurons (CGN) [2] | also measured |
| --- | --- | --- | --- |
| CC(C)(C)n1nc(-c2ccc(Cl)cc2)c2c(N)ncnc21 [PP2] |  |  | effect of inhibitor on GDNF-induced neurite outgrowth (hippocampal neurons [1]): decreases GDNF-induced neurite outgrowth; effect of inhibitor on G2-induced neurite outgrowth (hippocampal neurons [1]): decreases G2-induced neurite outgrowth |
| Cc1c[nH]c(/C=C2\C(=O)Nc3ccccc32)c1CCC(=O)O [SU5402] |  |  | effect of inhibitor on GDNF-induced neurite outgrowth (hippocampal neurons [1]): decreases GDNF-induced neurite outgrowth; effect of inhibitor on G2-induced neurite outgrowth (hippocampal neurons [1]): decreases G2-induced neurite outgrowth |
| ARVYDLGLRRLRQRR (listed as Homo sapiens) [N2, neurturin fragment] | binding |  |  |
| DEVSFLDAHSRY (listed as Homo sapiens) [NeuGi, neurturin-derived peptide] | binding | increases the survival of CGNs |  |
| DLSFLDDNLVY (listed as Homo sapiens) [G3, GDNF fragment] |  |  | neurite outgrowth, overall effect of treatment (one-way ANOVA) [3]: do not induce neurite outgrowth; neurite outgrowth, overall effect of treatment, neurons grown on NCAM-expressing fibroblasts (hippocampal neurons [4]; co-culture on NCAM-expressing fibroblasts, GDNF 1-100 ng/ml, peptides 0.1-81 μg/ml): overall statistical significant effect; neurite outgrowth, overall effect of treatment, neurons grown on control fibroblasts (hippocampal neurons [4]; co-culture on control fibroblasts, GDNF 1-100 ng/ml, peptides 0.1-81 μg/ml): no overall significant effect; difference between neurite outgrowth on control fibroblasts and on NCAM-expressing fibroblasts across concentrations (one-way ANOVA) (hippocampal neurons [4]; difference per concentration, expressed as percentage of control): mean differences are not all the same; direction of the effect on NCAM-induced neurite outgrowth (hippocampal neurons [4]; neurons on NCAM-expressing fibroblasts, 0.3-81 μg/ml): inhibitory at higher concentrations |
| EAVSFMDVNSTWR (listed as Homo sapiens) [ArtGi, artemin-derived peptide] | binding | increases the survival of CGNs |  |
| RSPHDLSLASLLGAG (listed as Homo sapiens) [A2, artemin fragment] | binding | increases the survival of CGNs |  |
| VPVRALGLGHRSDEL (listed as Homo sapiens) [A1, artemin fragment] |  | increases the survival of CGNs |  |
| VRVSELGLGYASDET (listed as Homo sapiens) [N1, neurturin fragment] | binding | increases the survival of CGNs |  |

From patent US8138148B2, “GDNF derived peptides” (Copenhagen University, priority 2005, dated 2012)
